ChEMBL document CHEMBL5653615 (J Biol Chem, 2013)

Assays:
[1] = target: T1, Muscle, skeletal receptor tyrosine-protein kinase (Homo sapiens) (UniProt O15146); experiment: Inhibition of human MUSK at 18.6 nM by HotSpot assay relative to control
T1 sequence (whole entry): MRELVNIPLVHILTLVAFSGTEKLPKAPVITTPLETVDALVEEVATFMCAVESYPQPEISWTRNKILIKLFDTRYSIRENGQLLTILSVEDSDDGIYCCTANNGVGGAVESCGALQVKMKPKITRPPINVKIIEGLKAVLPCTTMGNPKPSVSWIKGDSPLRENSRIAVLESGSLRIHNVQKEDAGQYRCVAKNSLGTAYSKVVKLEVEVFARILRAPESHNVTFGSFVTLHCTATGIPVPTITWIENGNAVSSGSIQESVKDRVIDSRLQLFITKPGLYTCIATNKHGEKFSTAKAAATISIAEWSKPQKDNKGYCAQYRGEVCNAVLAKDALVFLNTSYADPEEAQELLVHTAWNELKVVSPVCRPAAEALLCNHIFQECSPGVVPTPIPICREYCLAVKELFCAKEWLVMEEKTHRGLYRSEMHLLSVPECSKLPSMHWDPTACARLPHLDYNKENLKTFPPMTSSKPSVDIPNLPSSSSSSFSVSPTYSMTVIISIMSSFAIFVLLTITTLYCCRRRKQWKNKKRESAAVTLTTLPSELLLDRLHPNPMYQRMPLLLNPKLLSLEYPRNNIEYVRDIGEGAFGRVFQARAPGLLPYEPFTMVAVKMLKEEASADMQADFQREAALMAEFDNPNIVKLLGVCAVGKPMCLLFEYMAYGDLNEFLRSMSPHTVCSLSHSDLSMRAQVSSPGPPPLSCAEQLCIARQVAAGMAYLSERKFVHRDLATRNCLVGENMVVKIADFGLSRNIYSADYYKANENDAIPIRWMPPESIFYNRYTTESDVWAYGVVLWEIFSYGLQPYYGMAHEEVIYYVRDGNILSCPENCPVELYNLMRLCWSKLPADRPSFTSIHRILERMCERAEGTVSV

[2] = target: Dual specificity mitogen-activated protein kinase kinase 2 (Homo sapiens) (UniProt P36507); experiment: Inhibition of human MEK2 at 18.6 nM by HotSpot assay relative to control
[3] = target: Fibroblast growth factor receptor 1 (Homo sapiens) (UniProt P11362); experiment: Inhibition of human FGFR1 at 18.6 nM by HotSpot assay relative to control
[4] = target: Casein kinase I isoform alpha (Homo sapiens) (UniProt P48729); experiment: Inhibition of human CK1a1 at 18.6 nM by HotSpot assay relative to control
[5] = target: Fibroblast growth factor receptor 2 (Homo sapiens) (UniProt P21802); experiment: Inhibition of human FGFR2 at 18.6 nM by HotSpot assay relative to control
[6] = target: Activated CDC42 kinase 1 (Homo sapiens) (UniProt Q07912); experiment: Inhibition of human ACK1 at 18.6 nM by HotSpot assay relative to control
[7] = target: T2, Protein kinase C zeta type (Homo sapiens) (UniProt Q05513); experiment: Inhibition of human PKCzeta at 18.6 nM by HotSpot assay relative to control
T2 sequence (whole entry): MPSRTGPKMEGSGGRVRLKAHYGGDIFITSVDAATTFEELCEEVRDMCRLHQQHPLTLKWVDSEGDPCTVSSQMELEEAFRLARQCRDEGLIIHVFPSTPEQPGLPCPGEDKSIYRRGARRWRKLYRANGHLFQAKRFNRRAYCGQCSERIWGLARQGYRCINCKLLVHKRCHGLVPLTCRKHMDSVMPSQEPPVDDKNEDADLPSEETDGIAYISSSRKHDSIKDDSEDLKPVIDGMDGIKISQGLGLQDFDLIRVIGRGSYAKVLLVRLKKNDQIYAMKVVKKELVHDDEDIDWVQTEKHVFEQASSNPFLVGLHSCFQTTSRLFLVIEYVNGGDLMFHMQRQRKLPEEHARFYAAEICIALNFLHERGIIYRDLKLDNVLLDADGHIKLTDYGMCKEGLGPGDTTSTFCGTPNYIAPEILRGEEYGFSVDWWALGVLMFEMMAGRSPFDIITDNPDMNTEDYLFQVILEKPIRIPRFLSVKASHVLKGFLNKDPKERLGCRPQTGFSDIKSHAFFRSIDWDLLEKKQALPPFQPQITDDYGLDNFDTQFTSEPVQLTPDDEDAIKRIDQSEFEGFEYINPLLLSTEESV

[8] = target: T3, Activin receptor type-1 (Homo sapiens) (UniProt Q04771); experiment: Inhibition of human ALK2 at 18.6 nM by HotSpot assay relative to control
T3 sequence (whole entry): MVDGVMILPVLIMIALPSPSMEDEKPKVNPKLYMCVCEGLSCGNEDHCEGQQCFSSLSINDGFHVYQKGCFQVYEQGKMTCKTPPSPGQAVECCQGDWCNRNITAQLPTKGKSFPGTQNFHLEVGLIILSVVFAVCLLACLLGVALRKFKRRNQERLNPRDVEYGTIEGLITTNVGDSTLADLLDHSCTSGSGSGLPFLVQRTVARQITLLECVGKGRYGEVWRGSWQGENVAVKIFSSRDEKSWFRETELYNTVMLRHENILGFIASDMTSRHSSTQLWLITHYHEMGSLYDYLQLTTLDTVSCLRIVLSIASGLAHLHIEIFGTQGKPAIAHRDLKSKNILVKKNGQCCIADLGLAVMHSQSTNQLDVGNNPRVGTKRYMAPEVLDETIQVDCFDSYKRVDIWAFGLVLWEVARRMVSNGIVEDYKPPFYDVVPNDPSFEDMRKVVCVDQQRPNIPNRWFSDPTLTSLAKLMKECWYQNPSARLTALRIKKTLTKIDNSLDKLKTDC

[9] = target: Cyclin-dependent kinase 5/CDK5 activator 1 (Homo sapiens) (UniProt Q00535+Q15078); experiment: Inhibition of human CDK5/p25 at 18.6 nM by HotSpot assay relative to control; format: protein-complex assay
[10] = target: Maternal embryonic leucine zipper kinase (Homo sapiens) (UniProt Q14680); experiment: Inhibition of human MELK at 1.82 nM by HotSpot assay relative to control
[11] = target: Leukocyte tyrosine kinase receptor (Homo sapiens) (UniProt P29376); experiment: Inhibition of human LTK at 1.82 nM by HotSpot assay relative to control
Sequence of Leukocyte tyrosine kinase receptor (Homo sapiens) (P29376 whole entry): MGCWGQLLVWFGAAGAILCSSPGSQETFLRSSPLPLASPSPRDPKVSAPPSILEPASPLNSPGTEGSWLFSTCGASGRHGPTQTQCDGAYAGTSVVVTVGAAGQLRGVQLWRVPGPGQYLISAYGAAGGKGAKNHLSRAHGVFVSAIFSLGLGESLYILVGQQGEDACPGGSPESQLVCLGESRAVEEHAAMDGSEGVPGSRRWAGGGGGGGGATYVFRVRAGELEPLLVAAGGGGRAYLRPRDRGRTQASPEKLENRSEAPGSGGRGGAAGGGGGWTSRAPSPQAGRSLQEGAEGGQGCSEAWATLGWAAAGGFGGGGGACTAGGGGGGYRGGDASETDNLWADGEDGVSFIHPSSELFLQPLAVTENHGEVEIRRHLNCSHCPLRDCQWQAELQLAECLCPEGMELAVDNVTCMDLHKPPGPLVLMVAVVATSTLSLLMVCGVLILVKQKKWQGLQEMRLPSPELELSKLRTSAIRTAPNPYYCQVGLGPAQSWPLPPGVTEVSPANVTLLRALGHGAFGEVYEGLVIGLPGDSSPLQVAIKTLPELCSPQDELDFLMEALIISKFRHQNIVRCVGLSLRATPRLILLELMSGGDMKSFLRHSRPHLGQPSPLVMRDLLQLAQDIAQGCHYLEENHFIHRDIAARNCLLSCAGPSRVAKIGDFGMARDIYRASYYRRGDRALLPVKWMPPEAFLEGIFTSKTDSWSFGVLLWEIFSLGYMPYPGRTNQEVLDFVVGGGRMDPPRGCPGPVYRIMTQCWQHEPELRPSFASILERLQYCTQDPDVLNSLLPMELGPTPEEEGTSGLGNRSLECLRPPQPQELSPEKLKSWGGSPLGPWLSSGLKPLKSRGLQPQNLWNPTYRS

Sequence of Fibroblast growth factor receptor 2 (Homo sapiens) (P21802 22-821 limits assumed): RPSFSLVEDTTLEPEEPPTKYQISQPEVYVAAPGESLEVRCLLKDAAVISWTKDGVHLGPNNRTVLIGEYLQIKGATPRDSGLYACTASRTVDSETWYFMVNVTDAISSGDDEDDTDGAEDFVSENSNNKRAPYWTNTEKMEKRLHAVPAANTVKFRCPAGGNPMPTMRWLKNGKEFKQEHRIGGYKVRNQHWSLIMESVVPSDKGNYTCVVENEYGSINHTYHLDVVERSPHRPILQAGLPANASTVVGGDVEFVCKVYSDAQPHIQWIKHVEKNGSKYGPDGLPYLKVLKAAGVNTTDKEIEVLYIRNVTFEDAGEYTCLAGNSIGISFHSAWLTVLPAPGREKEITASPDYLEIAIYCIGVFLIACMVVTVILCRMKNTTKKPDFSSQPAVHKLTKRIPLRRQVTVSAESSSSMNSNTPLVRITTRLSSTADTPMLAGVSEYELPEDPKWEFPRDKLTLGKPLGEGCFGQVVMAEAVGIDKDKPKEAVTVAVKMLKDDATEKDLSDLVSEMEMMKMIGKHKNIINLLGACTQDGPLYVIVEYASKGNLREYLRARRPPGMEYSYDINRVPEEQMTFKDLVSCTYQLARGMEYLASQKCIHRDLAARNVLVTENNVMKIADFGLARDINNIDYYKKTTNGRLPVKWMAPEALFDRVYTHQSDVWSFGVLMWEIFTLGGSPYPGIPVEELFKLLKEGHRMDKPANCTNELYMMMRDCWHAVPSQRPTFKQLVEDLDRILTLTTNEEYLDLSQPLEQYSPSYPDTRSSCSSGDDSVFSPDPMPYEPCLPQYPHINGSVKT
Sequence of Fibroblast growth factor receptor 1 (Homo sapiens) (P11362 22-822 limits assumed): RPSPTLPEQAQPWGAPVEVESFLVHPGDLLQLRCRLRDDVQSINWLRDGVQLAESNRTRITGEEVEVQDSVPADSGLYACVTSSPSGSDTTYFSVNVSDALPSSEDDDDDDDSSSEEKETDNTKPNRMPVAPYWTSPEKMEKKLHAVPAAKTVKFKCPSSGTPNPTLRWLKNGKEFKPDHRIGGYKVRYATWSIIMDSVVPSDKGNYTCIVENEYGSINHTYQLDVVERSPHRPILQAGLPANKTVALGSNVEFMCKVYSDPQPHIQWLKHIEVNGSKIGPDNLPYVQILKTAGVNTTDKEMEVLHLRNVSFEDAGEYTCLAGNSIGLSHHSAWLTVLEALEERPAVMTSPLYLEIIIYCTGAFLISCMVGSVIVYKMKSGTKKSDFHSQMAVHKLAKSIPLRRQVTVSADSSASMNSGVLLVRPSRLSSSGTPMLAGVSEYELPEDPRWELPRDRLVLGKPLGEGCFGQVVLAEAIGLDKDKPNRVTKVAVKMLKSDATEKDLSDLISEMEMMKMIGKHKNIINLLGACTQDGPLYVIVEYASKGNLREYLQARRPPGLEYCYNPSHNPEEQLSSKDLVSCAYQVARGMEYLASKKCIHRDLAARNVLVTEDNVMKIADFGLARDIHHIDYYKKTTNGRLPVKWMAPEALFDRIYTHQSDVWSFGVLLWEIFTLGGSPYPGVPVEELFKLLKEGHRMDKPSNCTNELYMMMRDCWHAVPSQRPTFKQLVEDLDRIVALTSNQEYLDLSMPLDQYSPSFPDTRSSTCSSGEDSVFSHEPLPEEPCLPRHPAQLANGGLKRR
Sequence of Maternal embryonic leucine zipper kinase (Homo sapiens) (Q14680 whole entry, looked up): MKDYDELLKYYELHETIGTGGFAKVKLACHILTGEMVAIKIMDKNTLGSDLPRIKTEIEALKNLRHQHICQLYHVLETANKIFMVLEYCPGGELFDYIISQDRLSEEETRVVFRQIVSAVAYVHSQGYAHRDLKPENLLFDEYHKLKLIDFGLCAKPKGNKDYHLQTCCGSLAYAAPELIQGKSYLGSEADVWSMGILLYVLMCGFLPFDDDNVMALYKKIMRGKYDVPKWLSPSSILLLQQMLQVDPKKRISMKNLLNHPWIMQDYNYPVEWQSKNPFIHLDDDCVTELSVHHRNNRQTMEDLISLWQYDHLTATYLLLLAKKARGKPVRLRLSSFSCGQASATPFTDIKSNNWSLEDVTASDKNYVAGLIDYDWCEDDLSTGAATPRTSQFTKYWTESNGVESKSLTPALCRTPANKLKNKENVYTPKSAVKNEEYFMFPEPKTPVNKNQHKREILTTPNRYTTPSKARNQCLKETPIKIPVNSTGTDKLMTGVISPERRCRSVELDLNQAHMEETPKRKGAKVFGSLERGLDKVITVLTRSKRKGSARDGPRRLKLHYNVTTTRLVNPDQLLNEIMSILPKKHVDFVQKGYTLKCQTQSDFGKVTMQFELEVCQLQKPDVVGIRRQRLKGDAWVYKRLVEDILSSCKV
Sequence of Activated CDC42 kinase 1 (Homo sapiens) (Q07912 whole entry, looked up): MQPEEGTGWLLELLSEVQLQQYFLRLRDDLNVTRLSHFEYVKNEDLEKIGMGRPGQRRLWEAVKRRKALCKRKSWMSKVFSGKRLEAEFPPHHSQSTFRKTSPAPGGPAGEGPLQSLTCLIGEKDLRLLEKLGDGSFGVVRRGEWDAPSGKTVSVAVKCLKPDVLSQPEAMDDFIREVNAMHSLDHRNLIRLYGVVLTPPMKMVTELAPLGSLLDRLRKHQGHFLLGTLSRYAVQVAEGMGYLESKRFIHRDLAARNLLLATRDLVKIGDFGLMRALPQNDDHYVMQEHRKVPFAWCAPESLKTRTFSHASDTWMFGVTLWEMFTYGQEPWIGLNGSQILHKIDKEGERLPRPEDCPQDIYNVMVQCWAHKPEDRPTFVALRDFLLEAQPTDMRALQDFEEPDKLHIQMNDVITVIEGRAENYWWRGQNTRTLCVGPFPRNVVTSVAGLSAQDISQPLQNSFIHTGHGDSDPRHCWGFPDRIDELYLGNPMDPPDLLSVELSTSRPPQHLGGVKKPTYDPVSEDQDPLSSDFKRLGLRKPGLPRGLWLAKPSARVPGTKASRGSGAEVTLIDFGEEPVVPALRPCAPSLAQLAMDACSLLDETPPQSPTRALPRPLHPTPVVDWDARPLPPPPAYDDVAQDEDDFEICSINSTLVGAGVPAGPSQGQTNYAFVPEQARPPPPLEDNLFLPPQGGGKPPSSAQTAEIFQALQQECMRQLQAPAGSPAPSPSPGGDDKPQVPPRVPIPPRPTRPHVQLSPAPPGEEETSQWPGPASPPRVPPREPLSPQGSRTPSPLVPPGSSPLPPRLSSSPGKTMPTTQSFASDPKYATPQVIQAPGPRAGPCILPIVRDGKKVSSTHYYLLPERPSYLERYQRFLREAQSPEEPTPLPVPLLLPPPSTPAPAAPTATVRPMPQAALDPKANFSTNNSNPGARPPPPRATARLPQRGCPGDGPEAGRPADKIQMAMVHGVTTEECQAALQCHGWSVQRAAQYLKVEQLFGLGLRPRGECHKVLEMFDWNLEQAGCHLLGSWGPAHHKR
Sequence of Cyclin-dependent kinase 5/CDK5 activator 1 (Homo sapiens) (Q00535 whole entry): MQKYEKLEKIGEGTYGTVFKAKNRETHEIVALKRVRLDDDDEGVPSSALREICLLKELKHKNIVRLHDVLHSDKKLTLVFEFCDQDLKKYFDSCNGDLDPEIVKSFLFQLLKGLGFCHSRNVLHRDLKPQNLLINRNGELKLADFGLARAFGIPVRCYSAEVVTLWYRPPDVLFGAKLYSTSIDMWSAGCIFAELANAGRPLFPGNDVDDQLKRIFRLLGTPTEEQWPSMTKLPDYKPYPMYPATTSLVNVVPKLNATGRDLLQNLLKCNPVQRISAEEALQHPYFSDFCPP
Sequence of Cyclin-dependent kinase 5/CDK5 activator 1 (Homo sapiens) (Q15078 99-307 partner limits assumed): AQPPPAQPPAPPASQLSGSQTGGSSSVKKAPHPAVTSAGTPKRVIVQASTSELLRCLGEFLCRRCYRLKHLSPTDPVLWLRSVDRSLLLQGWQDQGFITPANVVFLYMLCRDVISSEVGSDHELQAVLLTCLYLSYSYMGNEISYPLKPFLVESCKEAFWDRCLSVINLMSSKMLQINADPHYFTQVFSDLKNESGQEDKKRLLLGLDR
Sequence of Casein kinase I isoform alpha (Homo sapiens) (P48729 2-337 limits assumed): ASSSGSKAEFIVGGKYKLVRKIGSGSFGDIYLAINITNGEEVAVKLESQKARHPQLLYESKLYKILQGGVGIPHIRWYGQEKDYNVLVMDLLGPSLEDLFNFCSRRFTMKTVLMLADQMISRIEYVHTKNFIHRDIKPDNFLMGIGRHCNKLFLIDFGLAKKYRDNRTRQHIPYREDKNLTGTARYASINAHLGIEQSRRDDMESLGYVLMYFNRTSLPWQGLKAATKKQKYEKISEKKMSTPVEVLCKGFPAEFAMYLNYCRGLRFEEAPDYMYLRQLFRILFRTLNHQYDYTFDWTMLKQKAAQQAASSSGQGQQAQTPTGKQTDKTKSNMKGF

Q: For `C[C@]1(O)C[C@@H](c2nc(-c3ccc4ccc(-c5ccccc5)nc4c3)c3c(N)nccn32)C1`, which inhibition [1] is on record?
A: 1.47%

Q: What about the inhibition [2] of the same compound?
A: -5.1%

Q: What about the inhibition [3] of the same compound?
A: -8.13%

Q: And the inhibition [4]?
A: 4.32%

Q: What about the inhibition [5] of the same compound?
A: -3.25%

Q: What about the inhibition [6] of the same compound?
A: 3%

Q: And the inhibition [7]?
A: -2.9%

Q: And the inhibition [8]?
A: 1.44%

Q: What about the inhibition [9] of the same compound?
A: 4.12%

Q: Which results are given for `C[C@@]1(C(=O)Nc2ccc(F)nc2)CCCN1c1nc(Nc2cc(C3CC3)n[nH]2)c2cccn2n1`?
A: inhibition [10]: 1.63%; inhibition [11]: -7.41%
